Results on eleven compounds are retold here after ChEMBL document CHEMBL1201862, “PubChem BioAssay data set” (2004).

As usually defined, the GI50 is the concentration giving 50% growth inhibition.

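1) Cells in 96-well plates. 2) Compound, 48 h, 5 concentrations. 3) Linear interpolation between surrounding doses. 4) Unreached endpoint = highest concentration. GI50 marks 50% less growth.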 Activity calls are given as the source filed them. No stated cut-off is given here; in the data, active = GI50 up to about 1.1 µM and inactive = higher.

Some test systems named below: BT-549; HCC 2998; HCT-15; HOP-62; HOP-92; LOX IMVI; Malme-3M; NCI-H226; OVCAR-3; OVCAR-4; OVCAR-5; OVCAR-8; PC-3; RPMI-8226; SK-MEL-28; SK-MEL-5; SNB-75; U-251; UACC-62.
Test in all cases: DTP human tumour cell line panel, 48 h

For the compound `Nc1c(S(=O)(=O)O)cc(Nc2cccc(S(=O)(=O)/C=C/S(=O)(=O)O)c2)c2c1C(=O)c1ccccc1C2=O`, the GI50 is > 100 µM (inactive) in the assay on BT-549; > 100 µM (inactive) in the assay on HCC 2998; more than 100 µM in the assay on HCT-15; > 100 µM (inactive) with HOP-62; > 100 µM (inactive) with HOP-92; > 100 µM (inactive) in the assay on LOX IMVI. The GI50 in the assay with Malme-3M, with NCI-H226, in the assay on OVCAR-3, with OVCAR-4, with OVCAR-5 and with OVCAR-8 was > 100 µM (inactive) throughout. In addition, the GI50 with PC-3 is > 100 µM (inactive); in the assay with RPMI-8226, > 100 µM (inactive); with SK-MEL-28, > 100 µM (inactive); in the assay on SK-MEL-5 it was > 100 µM (inactive); in the assay with SNB-75 it was 34.7 µM (inactive); with U-251, > 100 µM (inactive). Moreover, the GI50 in the assay on UACC-62 was > 100 µM (inactive).
As for `c1ccc2c(c1)CCN(C1=NCCO1)C2`, the GI50 with BT-549 is > 10 µM (inactive); in the assay with HCC 2998, > 10 µM (inactive); with HCT-15 it was more than 10 µM; with HOP-62, > 10 µM (inactive); with HOP-92 it was > 10 µM (inactive); in the assay on LOX IMVI, > 10 µM (inactive). The GI50 in the assay on Malme-3M, in the assay with NCI-H226, with OVCAR-3, with OVCAR-4, with OVCAR-5 and in the assay with OVCAR-8 was > 10 µM (inactive) each time. The GI50 with PC-3, with RPMI-8226, with SK-MEL-28, in the assay with SK-MEL-5, in the assay on SNB-75 and with U-251 was > 10 µM (inactive) each time. In the assay on UACC-62, the GI50 is > 10 µM (inactive).
As for `COC1C=C(NCC2(CO)CCC2)N=C(N)N1` (centres undefined), the GI50 in the assay with BT-549 is > 100 µM (inactive); in the assay with HCC 2998, > 100 µM (inactive); in the assay with HCT-15, more than 100 µM; in the assay with HOP-62, > 100 µM (inactive); in the assay on HOP-92, > 100 µM (inactive); in the assay with LOX IMVI, > 100 µM (inactive). Moreover, the GI50 with Malme-3M, with NCI-H226, with OVCAR-3, in the assay with OVCAR-4, in the assay on OVCAR-5 and in the assay with OVCAR-8 was > 100 µM (inactive) throughout. In addition, the GI50 in the assay on PC-3, in the assay with RPMI-8226, in the assay with SK-MEL-28, in the assay with SK-MEL-5, with SNB-75 and with U-251 was > 100 µM (inactive) throughout. Further, the GI50 in the assay with UACC-62 was > 100 µM (inactive).
Turning to `CNC(=O)N(CCC#N)CCCN(C(=O)N(C)C)c1ccccc1`, the GI50 is > 100 µM (inactive) with BT-549; > 100 µM (inactive) in the assay with HCC 2998; more than 100 µM in the assay on HCT-15; > 100 µM (inactive) in the assay on HOP-62; > 100 µM (inactive) with HOP-92; > 100 µM (inactive) in the assay on LOX IMVI. In addition, the GI50 in the assay with Malme-3M, with NCI-H226, with OVCAR-3, with OVCAR-4, in the assay with OVCAR-5 and with OVCAR-8 was > 100 µM (inactive) in each case. Also, the GI50 in the assay on PC-3, in the assay with RPMI-8226, in the assay on SK-MEL-28, with SK-MEL-5, in the assay on SNB-75 and in the assay on U-251 was > 100 µM (inactive) in each case. Also, the GI50 with UACC-62 was > 100 µM (inactive).
For `Cn1c2c3c(F)c(F)ccc3nc-2cc2ccccc21`, the GI50 is 3 µM (inactive) in the assay with BT-549; 1.32 µM (inactive) with HCC 2998; 1.49 µM in the assay with HCT-15; 1.35 µM (inactive) in the assay on HOP-62; 4.76 µM (inactive) with HOP-92; 1.07 µM (active) in the assay on LOX IMVI. The GI50 is 2.7 µM (inactive) in the assay on Malme-3M; 2.59 µM (inactive) in the assay with NCI-H226; 2.33 µM (inactive) with OVCAR-3; 10.1 µM (inactive) in the assay with OVCAR-4; 1.92 µM (inactive) with OVCAR-5; 1.74 µM (inactive) with OVCAR-8. Besides, the GI50 with PC-3 was 2.85 µM (inactive); with RPMI-8226, 0.711 µM (active); in the assay on SK-MEL-28, 4.17 µM (inactive); with SK-MEL-5, 3.04 µM (inactive); in the assay on SNB-75, 0.805 µM (active); with U-251 it was 1.58 µM (inactive). Further, the GI50 with UACC-62 is 3.44 µM (inactive).
With `CCOC(=O)C1=C(C)N(c2ccc(C)cc2)C2(O)C=CC(O)=C3C(=O)c4ccccc4C(=O)C312` (centres undefined), the GI50 in the assay with BT-549 was 19.2 µM (inactive); in the assay with HCC 2998 it was 29.3 µM (inactive); in the assay with HCT-15, 22.8 µM; with HOP-62, > 100 µM (inactive); in the assay with HOP-92, 19.3 µM (inactive); with LOX IMVI, 25.2 µM (inactive). Besides, the GI50 is 20.6 µM (inactive) in the assay on Malme-3M; 59.3 µM (inactive) in the assay with NCI-H226; 34.9 µM (inactive) in the assay with OVCAR-3; 25 µM (inactive) with OVCAR-4; 54.2 µM (inactive) with OVCAR-5; 21.6 µM (inactive) in the assay on OVCAR-8. The GI50 was 25.1 µM (inactive) in the assay on PC-3; 11.1 µM (inactive) in the assay with RPMI-8226; 24.9 µM (inactive) with SK-MEL-28; 19.7 µM (inactive) in the assay with SK-MEL-5; 24.1 µM (inactive) in the assay on SNB-75; 39.7 µM (inactive) in the assay with U-251. Also, the GI50 with UACC-62 was 33.1 µM (inactive).
Take `COc1cc2c3cc1Oc1c(OC)c(OC)cc4c1C(=NCC4)Cc1ccc(cc1)Oc1cc(ccc1O)C[C@H]3N(C)CC2`: the GI50 is 12.5 µM (inactive) in the assay with BT-549; 13.4 µM (inactive) with HCC 2998; 12.2 µM in the assay on HCT-15; 22.3 µM (inactive) in the assay on HOP-62; 13.6 µM (inactive) in the assay with HOP-92; 12.6 µM (inactive) in the assay with LOX IMVI. Moreover, the GI50 in the assay on Malme-3M was 0.601 µM (active); in the assay on NCI-H226 it was 22.6 µM (inactive); in the assay with OVCAR-3 it was 17.7 µM (inactive); in the assay on OVCAR-4, 16.1 µM (inactive); in the assay with OVCAR-5 it was 45.6 µM (inactive); in the assay on OVCAR-8, 16 µM (inactive). The GI50 in the assay with PC-3 is 13.2 µM (inactive); in the assay on RPMI-8226, 16.3 µM (inactive); in the assay on SK-MEL-28, 16.7 µM (inactive); with SK-MEL-5, 12.2 µM (inactive); in the assay with SNB-75, 14.1 µM (inactive); with U-251, 17.4 µM (inactive). Further, the GI50 with UACC-62 was 16.7 µM (inactive).
With `O=C(O)C/C(=C\c1ccccc1)C(=O)O`, the GI50 was > 100 µM (inactive) in the assay with BT-549; > 100 µM (inactive) in the assay on HCC 2998; more than 100 µM in the assay with HCT-15; > 100 µM (inactive) with HOP-62; > 100 µM (inactive) in the assay with HOP-92; > 100 µM (inactive) with LOX IMVI. The GI50 in the assay on Malme-3M, in the assay on NCI-H226, with OVCAR-3, in the assay on OVCAR-4, in the assay on OVCAR-5 and with OVCAR-8 was > 100 µM (inactive) each time. Also, the GI50 in the assay with PC-3, in the assay with RPMI-8226, in the assay on SK-MEL-28, in the assay with SK-MEL-5, with SNB-75 and in the assay with U-251 was > 100 µM (inactive) each time. Moreover, the GI50 with UACC-62 was > 100 µM (inactive).
As to `CCN(CC)N1C(=O)[N-][N+](CC)(CC)C1=O`, the GI50 in the assay on BT-549 was > 100 µM (inactive); with HCC 2998 it was > 100 µM (inactive); in the assay on HCT-15, more than 100 µM; with HOP-62, > 100 µM (inactive); in the assay with HOP-92, > 100 µM (inactive); with LOX IMVI, > 100 µM (inactive). Moreover, the GI50 in the assay with Malme-3M, in the assay with NCI-H226, with OVCAR-3, with OVCAR-4, in the assay on OVCAR-5 and in the assay with OVCAR-8 was > 100 µM (inactive) throughout. The GI50 in the assay with PC-3, in the assay on RPMI-8226, in the assay on SK-MEL-28, with SK-MEL-5, in the assay on SNB-75 and in the assay on U-251 was > 100 µM (inactive) each time. Further, the GI50 in the assay on UACC-62 is > 100 µM (inactive).
As to `CN(C)c1ccc(/C=C/C=c2/c3ccccc3n3c2cc(-c2ccccc2)[n+]3C)cc1`, the GI50 was 0.233 µM (active) in the assay on BT-549; 0.303 µM (active) with HCC 2998; 0.488 µM in the assay with HCT-15; 0.303 µM (active) in the assay with HOP-62; 0.318 µM (active) with HOP-92; 0.105 µM (active) with LOX IMVI. Besides, the GI50 in the assay with Malme-3M is 0.492 µM (active); in the assay on NCI-H226, 0.454 µM (active); in the assay on OVCAR-3, 0.0746 µM (active); with OVCAR-4 it was 0.414 µM (active); in the assay on OVCAR-5, 0.478 µM (active); in the assay with OVCAR-8, 0.102 µM (active). Further, the GI50 in the assay on PC-3 was 0.133 µM (active); in the assay with RPMI-8226 it was 0.149 µM (active); in the assay on SK-MEL-28, 0.459 µM (active); with SK-MEL-5, 0.169 µM (active); with SNB-75, 0.336 µM (active); in the assay on U-251, 0.0387 µM (active). In the assay with UACC-62, the GI50 is 0.217 µM (active).
In the case of `CS(=O)(=O)OC1CCN(C2(c3cccc(O)c3)CCCCC2)CC1`, the GI50 with BT-549 is 46.2 µM (inactive); in the assay on HCC 2998, 20.6 µM (inactive); with HCT-15, 79.1 µM; with HOP-62, 36.1 µM (inactive); with HOP-92, 51.3 µM (inactive); in the assay with LOX IMVI, 21.8 µM (inactive). For the same compound, the GI50 is > 100 µM (inactive) in the assay on Malme-3M; > 100 µM (inactive) in the assay with NCI-H226; > 100 µM (inactive) in the assay on OVCAR-3; 43 µM (inactive) in the assay with OVCAR-4; > 100 µM (inactive) with OVCAR-5; 57.7 µM (inactive) in the assay on OVCAR-8. Further, the GI50 in the assay with PC-3 was 33.6 µM (inactive); in the assay with RPMI-8226, 20.7 µM (inactive); with SK-MEL-28, 60.4 µM (inactive); in the assay on SK-MEL-5, 43.5 µM (inactive); in the assay with SNB-75, > 100 µM (inactive); in the assay on U-251 it was 64.7 µM (inactive). For the same compound, in the assay with UACC-62, the GI50 is 88.5 µM (inactive).
